Measured values taken from patent US20160160189A1, “Truncated Constructs of RIPK3 and Related Uses” (ST. JUDE CHILDREN'S RESEARCH HOSPITAL, priority 2013, published 2016).

Experiments:
[1] = test system: NIH-3T3 cells stably expressing DD-RIPK3; test: Cell death of DD-RIPK3 cells, IncuCyte bioimager; type: cell-based, murine; conditions: 1 μM Shield drug
Text: Chimeric proteins composed of RIPK3 fused to the destabilization domain (DD)(31a) were created via recombinant PCR, to produce a fragment composed of an N-terminal FLAG tag followed by the destabilization domain, then full-length murine RIPK3 or RIPK3^K51A. These constructs were cloned into the pRRL lentiviral vector downstream of an MND promoter, and upstream of a T2A-GFP-T2A-Puromycin resistance cassette. Thus, cells transduced with these vectors produce FLAG-DD-RIPK3, GFP, and the puromycin resistance marker as separate proteins from a single mRNA, and both DD-RIPK3 and GFP carry a C terminal 2A epitope. These constructs were expressed in NIH-3T3 cells via standard helper12 dependent lentiviral transduction, and resulting cells were selected in 2 μg/ml puromycin. […]
(§1) Resulting images were analyzed using the software package supplied with the IncuCyte imager, which allows precise analysis of the number of Sytox Green or Yoyo-3 positive cells present in each image. For each experiment, a minimum of three separate wells were treated with each experimental condition, and a minimum of 4 image fields were assessed per well. Percent cell death was calculated by treating a minimum of three distinct wells in each experiment with 100 nM of the cell permeable fluorescent dye Syto Green (S7559), which allows quantification of the total number of cells present in each field. […]

[2] = test system: NIH-3T3 cells stably expressing RIPK3-1xFv; test: TNF-induced necroptosis, IncuCyte imaging; type: cell-based, murine; conditions: recombinant TNF with zVAD; Nec1 30 μM, TNFR1-Fc 200 ng/ml
Protocol: Expression of RIPK3-1xFv sensitized these cells to necroptosis induced by the combination of TNF and a caspase inhibitor (zVAD) in a manner analogous to that observed in Jax cells, a murine fibroblast line that expresses endogenous RIPK3. See, FIG. 13C. […]
as §1

CN1C(=O)C(Cc2c[nH]c3ccccc23)NC1=S (stereo not drawn) [necrostatin-1, Necrostatin-1]
effect of Nec1 on cell death after RIPK1 siRNA-mediated knockdown ([1]; 30 μM Nec1, RIPK1 siRNA): eliminated | effect on cell death triggered by RIPK3 accumulation ([1]; no exogenous TNF, TNFR-Fc 200 ng/ml, Nec1 30 μM): decreased cell death | effect on TNF-induced necroptosis [2]: blocks
